# Measurements: patent US20020076452A1, “Combinations of sesquiterpene lactones and ditepene lactones or triterpenes for synergistic inhibition of cyclooxygenase-2” (Ashni Naturaceuticals, Inc., priority 2000, published 2002)
# Key:
# COX-2 [1] = assay: Inhibition of COX-2 enzyme protein expression in stimulated Jurkat cells (western blot); assay type: cell-based, Human; conditions: in the absence and presence of arachidonic acid, dose-range tested
# Source text: Chemicals: Anti-COX-2 antibodies may be purchased from Upstate Biotechnology (Lake Placid, N.Y.). Parthenolide and andrographolide may be obtained from Sigma (St. Louis, Mo.). Arachidonic acid (AA), PMA and all other chemical may also be purchased from Sigma and are of the highest purity commercially available.
# Human T cell lines: The Jurkat cell line is useful as a model for human T cells and may be obtained from the American Type Culture Collection (Bethesda, Md.). COX-2 is inducible in the Jurkat cell by PMA.
# Cell plating: The Jurkat cells are propagated in suspension according to the instructions of the supplier. For experimentation, cells are seeded from a log-phase culture at a density of 1×10^5 cells per mL in 100 mm plates, 20 mL per plate, 3 plates per treatment. Serum concentration in the test medium is maintained at 0.5%.
# Complete transfers are accomplished in 25-30 minutes at 500 mA. Membranes used for blotting are blocked by incubating in TBS (Tris buffered saline, 50 mM Tris, 150 mM NaCl, pH 7.5) containing 5% nonfat dry milk for 30 minutes at room temperature. COX-2 protein is visualized by incubation of the blots with the anti-COX-2 antibody in TBST (0.5% Tween 20 in TBS) for two hours and then a second incubation at room temperature with alkaline phosphatase-conjugated secondary antibody diluted 1:1000 in TBST for two hours. The enzymatic reaction is developed for 15 minutes. The molecular weight of COX-2 is estimated by adding a molecular weight standard to reference lanes and staining the membrane filters with amido black 10B.
# Blots are translated into TIFF-formatted files with a Microtech 600GS scanner and quantified using Scan Analysis (BIOSOFT, Cambridge, UK). Summary scans are then printed and peak heights are measured directly from the figure. One density unit (Du) is defined as one mm of the resulting peak height.
# Appropriate controls receive solvent only. […] Twenty-four hours after treatment, the cells are harvested, lysed and western blotting is done for the determination of COX-2 protein expression.
# COX-2 [2] = biological target: T1, COX-2 (Mus musculus, UniProt Q05769); assay: cell-based
# T1 sequence (Q05769 18-604): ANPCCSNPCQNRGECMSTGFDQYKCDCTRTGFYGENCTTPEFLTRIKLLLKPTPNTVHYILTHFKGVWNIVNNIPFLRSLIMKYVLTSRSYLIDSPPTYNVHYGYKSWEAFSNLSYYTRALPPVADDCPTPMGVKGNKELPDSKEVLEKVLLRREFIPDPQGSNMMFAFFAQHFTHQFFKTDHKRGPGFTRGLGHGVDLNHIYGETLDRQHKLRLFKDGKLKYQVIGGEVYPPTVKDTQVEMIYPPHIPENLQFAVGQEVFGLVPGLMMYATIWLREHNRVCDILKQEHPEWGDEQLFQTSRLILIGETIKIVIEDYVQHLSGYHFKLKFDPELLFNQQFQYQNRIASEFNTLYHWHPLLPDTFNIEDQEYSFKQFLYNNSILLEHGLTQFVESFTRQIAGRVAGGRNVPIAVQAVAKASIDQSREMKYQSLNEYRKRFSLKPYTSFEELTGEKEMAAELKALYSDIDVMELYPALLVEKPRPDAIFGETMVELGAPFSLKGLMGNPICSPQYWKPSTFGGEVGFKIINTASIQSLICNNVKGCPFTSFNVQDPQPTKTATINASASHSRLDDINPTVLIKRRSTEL
# Procedure: Inhibition of COX-2 Mediated Production of PGE2 in RAW 264.7 Cells
# General Procedure—RAW 264.7 cells, obtained from ATCC, were grown in DMEM medium and maintained in log phase growth.
# On day one of the experiment, the log phase 264.7 cells were plated at 8×10^4 cells per well in 0.2 mL growth medium per well in a 96-well tissue culture plate. After 6 to 8 hours post plating, 100 μL of growth medium from each well was removed and replaced with 100 μL fresh medium. A 1.0 mg/mL solution of LPS, which was used to induce the expression of COX-2 in the RAW 264.7 cells, was prepared by dissolving 1.0 mg of LPS in 1 mL DMSO.
# On day two of the experiment, the test materials were prepared as 1000×stock in DMSO. For example, if the final concentration of the test material was to be 10 μg/mL, a 10 mg/mL stock was prepared by dissolving 10 mg of the test material in 1 mL of DMSO. Fresh test materials were prepared on day 2 of the experiment. In 1.7 mL microfuge tubes, 1 mL DMEM without FBS was added to obtain test concentrations of 0.05, 0.10,0.5, and 1.0 μg/mL. 2 μL of the 1000×DMSO stock of the test material was added to the 1 mL of medium without FBS. The tube contained the final concentration of the test material was concentrated 2-fold. The tube was placed in incubator for 10 minutes to equilibrate.
# One-hundred mL of medium was removed from each well of the cell plates prepared on day one. […]
SMILES,Inhibition of COX-2 protein expression (COX-2 [1]),IC50 (COX-2 [2]) [µM]
"C=C1CC[C@@H]2[C@](C)(CO)[C@H](O)CC[C@@]2(C)[C@@H]1C/C=C1/C(=O)OC[C@H]1O [Andrographolide, andrographolide]",little effect,34.8
"C[C@H]1[C@H](C)CC[C@]2(C(=O)O)CC[C@]3(C)C(=CC[C@@H]4[C@@]5(C)CC[C@H](O)C(C)(C)[C@@H]5CC[C@]43C)[C@H]12 [Ursolic acid, ursolic acid]",does not inhibit,35.3
"CC1(C)CC[C@]2(C(=O)O)CC[C@]3(C)C(=CC[C@@H]4[C@@]5(C)CC[C@H](O)C(C)(C)[C@@H]5CC[C@]43C)[C@@H]2C1 [Oleanolic acid, oleanolic acid]",does not inhibit,–
